From PMC3375117 (International Microbiology, 2011)
In brackets after ≈: the same amount, converted by molar mass. Read-outs that look alike come from different tables or passages of the source.

How the values were obtained:
[1] = system: amastigotes of L. donovani (LD-1S/MHOM/SD/00-strain 1S); test: In vitro antiparasitic assay: Leishmania; type: cell-based; details: read-out: typical IC50 response of L. donovani
Vero cells [2] = details: cited from earlier work
[3] = system: amastigotes of L. donovani (LD-1S/MHOM/SD/00-strain 1S); details: cited from earlier work
Vero cells [4] = system: Vero cells
African trypanosomiasis = details: mice; cited from earlier work
[5] = system: P. falciparum (K1, multidrug-resistant strain); details: cited from earlier work
[6] = system: chloroquine-resistant strain (Indocrina W2) of Plasmodium falciparum; details: cited from earlier work
Vero cells [7] = test: Vero cell toxicity; details: Vero cells versus L. donovani
[8] = system: human breast cancer cell line MCF-7; details: read-out: IC50 cytotoxic activity MCF-7; cited from earlier work
[9] = system: recombinant Tulahuen clone C4 of T. cruzi; details: read-out: IC50 T. cruzi; cited from earlier work
[10] = system: Leishmania promastigote and amastigote forms; details: cited from earlier work
T. cruzi = details: cited from earlier work
[11] = read-out: IC50 growth of Leishmania donovani in the amastigote form
[12] = read-out: IC50 P. falciparum K1 strain, in vitro
[13] = read-out: cytotoxicity to Vero cells IC50
[14] = read-out: IC50 P. falciparum K1, K1, multidrug-resistant strain

## C[C@@H]1[C@H](O)[C@@H](C)/C=C/C=C/C=C/C=C/C=C/C=C/C=C/[C@H](O[C@@H]2O[C@H](C)[C@@H](O)[C@H](N)[C@@H]2O)C[C@@H]2O[C@](O)(C[C@@H](O)C[C@@H](O)[C@H](O)CC[C@@H](O)C[C@@H](O)CC(=O)O[C@H]1C)C[C@H](O)[C@H]2C(=O)O [Amphotericin B]
[1]
  IC50: 0.07 to 0.12 µg/mL (≈ 0.0758 to 0.13 µM)

## palmarumycin CP18 [Compound 3]
Vero cells [2]
  IC50: 152 µM
[3]; [11]
  IC50: 0.62 µM
Vero cells [4]
  therapeutic window: times greater anti-leishmanial activity than cytotoxicity: 245 times

## C/C(=C\Cc1c(O)c(Cl)c(C)c(C=O)c1O)CC/C=C(\C)[C@@H]1CC(=O)C(C)(C)O1 [Ascofuranone]
African trypanosomiasis
  therapeutic effects for African trypanosomiasis: good therapeutic effects

## COC1=CC(=O)C(Cl)=C(C)C1=O [2-chloro-5-methoxy-3-methylcyclohexa-2,5-diene-1,4-dione]
[5]; [12]
  IC50: 1.84 µM

## CCN(CC)CCCC(C)Nc1ccnc2cc(Cl)ccc12 (stereo not shown) [Chloroquine, reference compound]
[6]; positive control
  IC50: 0.08 to 0.1 µM

## COc1cc2c3c(oc2c(C)c1O)C(=O)C(C)=CC3=O [xylariaquinone A]
[5]; [12]
  IC50: 6.68 µM

## O=C1CCC2(Oc3cccc4cccc(c34)O2)c2cccc(O)c21 [Compound 1, Palmarumycin CP2]
Vero cells [2]; [13]
  IC50: 162 µM
[3]; [11]
  IC50: 3.93 µM
Vero cells [7]
  therapeutic window: times greater anti-leishmanial activity than cytotoxicity: 41 times

## COc1c(CC(C)O)c2c3c(CC(C)O)c(OC)c(=O)c4c(O)cc5c(c6c(cc(O)c(c1=O)c62)OCO5)c43 (stereo not shown) [Compound 7, cercosporin]
[8]
  IC50: 4.68 µM
[9]
  IC50: 1.08 µM
[3]; read-out: IC50 L. donovani
  IC50: 0.46 µM
[6]; read-out: IC50 P. falciparum
  IC50: 1.03 µM

## O=C1C=C[C@]23Oc4ccc(O)c5c4[C@](CCC5=O)(Oc4cccc1c42)O3 [Compound 6, preussomerin EG^1]
Vero cells [2]; [13]
  IC50: 150 µM
[3]; [11]
  IC50: 0.12 µM
Vero cells [7]
  therapeutic window: times greater anti-leishmanial activity than cytotoxicity: 12 times

## CCC[C@H]1C[C@H]2OC(=O)c3c(cc(OC)c(OC)c3O)[C@H]2O1 [Monocerin]
[5]; [14]
  IC50: 0.68 µM

## Oc1cccc2c1[C@@H](O)CCC21Oc2cccc3cccc(c23)O1 [Compound 5, CJ-12,371]
Vero cells [2]; [13]
  IC50: 9 µM
[3]; [11]
  IC50: 8.4 µM
Vero cells [7]
  therapeutic window: times greater anti-leishmanial activity than cytotoxicity: 75 times

## CC(C)C[C@@H](C(=O)N[C@H]1COC(=O)[C@H](Cc2ccccc2)N(C)C(=O)[C@H](CC(C)C)N(C)C(=O)[C@@H](NC(=O)[C@H](CC(C)C)N(C)C)COC(=O)[C@H](Cc2ccccc2)N(C)C(=O)[C@H](CC(C)C)N(C)C1=O)N(C)C [IB-01212]
[10]
  leishmanicidal activity: low micromolar concentrations

## COc1cccc2oc3c(Cl)c(O)c([C@H]4CCC[C@@H](C)O4)c(O)c3c(=O)c12 [Chaetoxanthone C]
T. cruzi
  IC50 T. cruzi: 1.5 µg/mL (≈ 3.84 µM)

## O=C1CCC2(Oc3cccc4cccc(c34)O2)c2c(O)ccc(O)c21 [Compound 2, palmarumycin CP17]
Vero cells [2]; [13]
  IC50: 174 µM
[3]; [11]
  IC50: 1.34 µM
Vero cells [7]
  therapeutic window: times greater anti-leishmanial activity than cytotoxicity: 130 times

## palmarumycin CP19 [Compound 4]
Vero cells [2]
  IC50: 140 µM
[3]; [11]
  IC50: 11.6 µM
Vero cells [4]
  therapeutic window: times greater anti-leishmanial activity than cytotoxicity: 18 times

## CC[C@@H](O)[C@@H]1C[C@@H]2OC(=O)c3c(cc(OC)c(OC)c3O)[C@@H]2O1 [11-hydroxymonocerin]
[5]; [14]
  IC50: 7.7 µM
